For data set [1], the system named is sNF96.2. Nature of the data set: MTT assay for cell viability, sNF96.2. The data set is classed as cell-based. The following applies: 48 h, mean from 3 independent experiments. On the procedure: (§1) Cells with RAS mutations were treated with compounds 1 and C-1 for 48 h and cell viability was evaluated by MTT assay. The results shown are mean from 3 independent experiments.
(§2) HCT-116 were authenticated by Eurofin genomics and cultured in DMEM (10% heat inactivated FBS). sNF96.2 were purchased from ATCC and cultured in DMEM (10% heat inactivated FBS+1 mM Na Pyruvate). ASPC-1 cells were purchased from DSMZ and cultured in RPMI-1640 (10% heat inactivated FBS). NCI-H358 were purchased from ATCC and cultured in RPMI-1640 (10% heat inactivated FBS). T24 and HCT-116 cells were cultured in Mccoy's 5A medium (10% heat inactivated FBS). HT-1080 cells were cultured in EMEM (10% heat inactivated FBS+1 mM Na Pyruvate).
(§3) Cancer cells were seeded in 96 well plates (5×10^3 cells/well) in 80 μl in growth medium and cultured for 1 day in the incubator. Next day, 20 μl of compounds containing growth medium was added to each well and the cells were cultured for 48 h. After incubation with compounds, 10 μl of MTT solution was added to the wells and incubated for 2-4 hours. After incubation with MTT, solubilization buffer was added and incubated over night. MTT was measured at O.D. 570 nm with a plate reader (Tecan). IC50 calculations by non-linear regression were conducted with GraphPad Prism 9.
For orientation: Tetrazolium dyes change colour on reduction, which living cells bring about.

For data set [2], the system named is T24. As to the kind of experiment: MTT assay for cell viability, T24. The data set is classed as cell-based. The following applies: Homo sapiens, T-24, 48 h, mean from 3 independent experiments. The protocol: as §1, §2, §3
A short description of data set [3]: Unbound fraction in human plasma (equilibrium dialysis). Format: in vitro ADME. The following applies: pH 7.4, dialysis 4 hours at 37 °C. An excerpt:
(§4) After administration, a certain amount of drug is in the blood or plasma. Of the total amount in the blood or plasma, some is bound to proteins (or other species in the blood or plasma). Only unbound drug is available e.g., for drug-target interactions. Therefore, the higher the unbound fraction that is available in the blood or plasma, the more is available for binding the drug to a target. The less unbound drug is available in the blood or plasma e.g., because it is involved in competitive binding to, for example, albumin, the less is available for desired drug-target interaction. The protocol for determining the unbound fraction and pharmacokinetics is routine practice and known to the skilled person.
HT-Dialysis plates (Model HTD 96 b, Cat #1006) and the dialysis membrane (molecular weight cut off 12-14 KDa, Cat #1101) were purchased from HT Dialysis LLC (Gales Ferry, CT).
Dialysis Buffer (100 mM sodium phosphate and 150 mM NaCl, pH 7.4±0.1)
Stop Solution (Acetonitrile containing tolbutamide at 200 ng/mL, labetalol at 200 ng/mL)
On the day of experiment, the plasma was thawed under running cold tap water and centrifuged at 3220×g for 5 min to remove any clots. The pH value was checked and recorded. […]
The dialysis membrane was pretreated according to the manufacturer's instructions: the dialysis membrane strips were soaked in ultra-pure water at room temperature for approximately 1 hr. Afterwards, each membrane strip that contains 2 membranes was separated and soaked in ethanol:water (20:80 v:v) for approximately 20 min, after which it was ready for use or was stored in the solution at 2-8° C. for up to 1 month. […]
The % Unbound, % Bound and % Recovery were calculated using the following equations:
[formula] […] [formula] • F=Free compound concentration as determined by the calculated concentration on the buffer side of the membrane • T=Total compound concentration as determined by the calculated concentration on the matrix side of the membrane • T0=Total compound concentration as determined by the calculated concentration in matrix before dialysis

Data set [4] has as its system ASPC1. As to the kind of experiment: MTT assay for cell viability, ASPC1. The settings on record: Homo sapiens, 48 h, mean from 3 independent experiments. Format: cell-based. The protocol: as §1, §2, §3
Data set [5] concerns H358. As to the kind of experiment: MTT assay for cell viability, H358. Format: cell-based. The settings on record: Homo sapiens, NCI-H358, 48 h, mean from 3 independent experiments. On the procedure: as §1, §2, §3
Data set [6] has as its target T1, KRAS G12V (Homo sapiens, UniProt P01116, G12V).
T1 construct: expressed in transfected cells; host or cells: HeLa
As to the kind of experiment: NanoBiT assay for RAS GTP-loading (LgBit-KRAS G12V / SmBit-CRAF-RBD) in HeLa cells. The data set is classed as cell-based. On the procedure:
(§5) NanoBiT assay for the RAS GTP-loading was performed in HeLa cells transfected with LgBit-K, N and HRAS G12V and SmBit-CRAF-RBD. Cells were treated with compounds 1 or C-1 for 2 h in serum-free DMEM (Dulbecco's modified Eagle's Medium). After incubation, the substrate for NanoLuc was added, and the luminescence was measured using a multiplate reader. Data were normalized to cells transfected with the indicated mutant and exposed to DMSO for 2 h. DMSO-treated cells were set as 1. The results shown are mean from 3 independent experiments.
(§6) HeLa cells were harvested with 0.05% Trypsin/0.02% EDTA in PBS and seeded in 6 well or 12 well cell culture plates at the concentration of 5×10^4 cells in complete DMEM (2 ml for 6 well plate and 1 ml for 12 well plate). After 1 day from seeding, the DNA were transfected with Flag tagged Ras or NanoBiT plasmid using PEI/PBS solution.
(§7) The plasmids were transfected to HeLa cells and the cells were harvested after 1 day of transfection. The cells were seeded to 96 well white plate. Next day, the medium was changed to serum free DMEM for 2 h with compounds. After incubation, Nano Glo assay was performed. The luminescence was measured using Tecan SPARKS (Tecan). IC50 calculations by non-linear regression were conducted with GraphPad Prism 9.

Data set [7] has as its system HCT-116. Nature of the data set: MTT assay for cell viability, HCT-116. The settings on record: Homo sapiens, 48 h, mean from 3 independent experiments. Format: cell-based. On the procedure: as §1, §2, §3
Data set [8] addresses T2, NRAS G12V (Homo sapiens, UniProt P01111, G12V).
T2 construct: expressed in transfected cells; host or cells: HeLa
Nature of the data set: NanoBiT assay for RAS GTP-loading (LgBit-NRAS G12V / SmBit-CRAF-RBD) in HeLa cells. Format: cell-based. The protocol:
as §5, §6, §7

Data set [9] can be described thus: iv (intravenous) PK. Format: in vivo. The following applies: for AUCinf(h*nM) Free / C average (nM) free / Cmax (nM), Free / AUC(0-inf) / Cmax / half-life: 2 mg/kg; for AUCinf(h*nM) Free / C average (nM) free / Cmax (nM), Free / half-life: i.v.; for Unbound clearance: Table 4, other values of the table equal the 2 mg/kg i.v. data; for AUC(0-inf) / Cmax / half-life: in vivo, iv; for half-life: read-out: T½ (converted).
From the text: as §4

Data set [10] concerns the target T3, HRAS G12V (Homo sapiens, UniProt P01112, G12V).
T3 construct: expressed in transfected cells; host or cells: HeLa
As to the kind of experiment: NanoBiT assay for RAS GTP-loading (LgBit-HRAS G12V / SmBit-CRAF-RBD) in HeLa cells. The data set is classed as cell-based. On the procedure:
as §5, §6, §7

Data set [11] can be described thus: oral PK. The following applies: for AUC(0-inf) / Cmax / average free concentration at 24 h / half-life: in vivo; for average free concentration at 24 h: read-out: C average (nM) free; for half-life: read-out: T½ (converted). The data set is classed as in vivo.
From the text: as §4

Data set [12] deals with HT-1080. Nature of the data set: MTT assay for cell viability, HT-1080. The data set is classed as cell-based. The following applies: Homo sapiens, 48 h, mean from 3 independent experiments. The protocol: as §1, §2, §3
Setting [13] is: IC50 (nM, KRAS G12V), as listed in the PK tables 1-4, assay not named.

As a reminder, the IC50 is the concentration at which inhibition is half-maximal. The fraction unbound is the share of the substance not bound to proteins or other matrix. As a reminder, the AUC(0-inf) is the area under the concentration-time curve extrapolated to infinity. By Cmax is commonly meant the peak of the concentration-time curve.

Read-outs that look alike come from different tables or passages of the source.

T1 sequence (P01116 1-186 isoform P01116-2 G12V limits assumed): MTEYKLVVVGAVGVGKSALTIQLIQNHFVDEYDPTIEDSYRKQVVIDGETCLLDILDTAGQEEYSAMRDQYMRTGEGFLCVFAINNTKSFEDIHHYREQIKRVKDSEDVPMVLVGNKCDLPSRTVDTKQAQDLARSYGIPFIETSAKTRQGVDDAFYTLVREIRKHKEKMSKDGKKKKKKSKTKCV
T2 sequence (P01111 1-186 G12V limits assumed): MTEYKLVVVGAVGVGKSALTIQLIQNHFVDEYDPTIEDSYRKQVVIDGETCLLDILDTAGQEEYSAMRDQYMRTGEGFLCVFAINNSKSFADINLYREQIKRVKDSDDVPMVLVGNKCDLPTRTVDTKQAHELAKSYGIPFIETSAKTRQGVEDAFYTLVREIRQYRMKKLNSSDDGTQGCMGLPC
T3 sequence (P01112 1-186 G12V limits assumed): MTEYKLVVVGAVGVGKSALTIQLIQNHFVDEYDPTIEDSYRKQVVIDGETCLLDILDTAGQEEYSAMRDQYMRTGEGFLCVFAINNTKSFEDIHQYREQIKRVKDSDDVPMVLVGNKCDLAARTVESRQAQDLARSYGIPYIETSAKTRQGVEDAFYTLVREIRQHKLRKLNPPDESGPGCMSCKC

For `COc1cc(OC)c2c(c1)O[C@@]1(c3ccc(C#N)cc3)[C@H](c3cccc(F)c3)C[C@@H](O)[C@@]21O` (single isomer, unassigned) [Compound 1], the IC50 amounted to 3.69 nM in data set [1]; 13.2 nM in data set [2]; 11.9 nM in [4]; 15.6 nM in data set [5]; 16.5 nM in data set [6] (IC50 (nM) KRAS G12V, NanoBiT, HeLa cells, 2 h in serum-free DMEM); 8.5 nM in data set [6] (setting [13]). The IC50 in data set [7] was 8.99 nM; in data set [8], 20.2 nM; in [10], 13.6 nM; in [12], 5.39 nM. The same compound came in with a fraction unbound at 4 h, 2 µM in data set [3] of 0.026. In addition, the entries for the “AUCinf(h*nM) Free” value in data set [9] and in data set [11] (50 mg/kg) were 19.8 nM·h and 378.6 nM·h, respectively. For the same compound, the “C average (nM) free” value in data set [9] worked out at 0.8 nM. Besides, the “Cmax (nM), Free” value in [9] is given as 30.4 nM; in data set [11] (50 mg/kg), 105.3 nM. The “Unbound clearance” value in [9] was 221 L/h/kg. Further, the AUC(0-inf) in data set [9] turned out to be 0.8 µM·h; in data set [11] (50 mg/kg) it was 14.6 µM·h. Further, the maximum concentration (Cmax) in data set [9] was determined as 1200 nM; in [11] (50 mg/kg), 4100 nM. Besides, the half-life was 0.9 h in data set [9] and 3.5 h in data set [11] (50 mg/kg). For the same compound, the average free concentration at 24 h in data set [11] (50 mg/kg) amounted to 15.8 nM.

As for `COc1cc(OC)c2c(c1)O[C@@]1(c3ccc(C#N)cc3)[C@H](c3ccccc3)C[C@@H](O)[C@@]21O` (single isomer, unassigned) [Compound 2], in [3], the fraction unbound at 4 h, 2 µM is 0.025. In data set [6] (setting [13]), half-maximal inhibition (IC50) was put at 5.4 nM. Also, in [9], the “AUCinf(h*nM) Free” value was determined as 51.8 nM·h; the “C average (nM) free” value worked out at 2.2 nM; the “Cmax (nM), Free” value was 43.7 nM; the “Unbound clearance” value was determined as 94.854 L/h/kg. Besides, in data set [9], the AUC(0-inf) worked out at 2.1 µM·h, the peak concentration (Cmax) was found to be 1700 nM and the half-life was 4 h. Also, in data set [11] (10 mg/kg), the “AUCinf(h*nM) Free” value is 26.6 nM·h; the “Cmax (nM), Free” value amounted to 21.4 nM; the AUC(0-inf) came to 1.1 µM·h; the peak concentration (Cmax) is 900 nM. For the same compound, in data set [11] (10 mg/kg), the average free concentration at 24 h was determined as 1.1 nM and the half-life is 1.3 h.

`COc1cc(OC)c2c(c1)O[C@@]1(c3ccc(Cl)cc3)[C@H](c3ccccc3)C[C@@H](O)[C@@]21O` [Compound C-1, (1R,3S,3aR,8bS)-3a-(4-chlorophenyl)-6,8-dimethoxy-3-phenyl-1,2,3,3a-tetrahydro-8bH-cyclopenta[b]benzofuran-1,8b-diol, reference compound]: the IC50 was 7.22 nM in data set [1]; 28.5 nM in data set [2]; 26.6 nM in data set [4]; 40 nM in data set [5]; 56.6 nM in data set [6] (NanoBiT, HeLa cells, 2 h in serum-free DMEM, read-out: IC50 (nM) KRAS G12V); 29 nM in [6] (as listed in the PK tables 1-4, assay not named, read-out: IC50 (nM, KRAS G12V)). Also, the IC50 in [7] amounted to 21.9 nM; in [8] (NanoBiT, HeLa cells, 2 h in serum-free DMEM, read-out: IC50 (nM) NRAS G12V) it was 61.4 nM; in [10] (NanoBiT, HeLa cells, 2 h in serum-free DMEM, read-out: IC50 (nM) HRAS G12V) it was 53.5 nM; in data set [12], 18 nM. The same compound displayed a fraction unbound at 4 h, 2 µM in data set [3] of 0.009. Also, the “AUCinf(h*nM) Free” value was determined as 7.9 nM·h in data set [9], 4.9 nM·h in [11] (10 mg/kg) and 109.8 nM·h in [11] (50 mg/kg). Moreover, the “C average (nM) free” value in data set [9] is listed as 0.3 nM. Moreover, the “Cmax (nM), Free” value in [9] is given as 14.5 nM; in data set [11] (10 mg/kg), 2.3 nM; in data set [11] (50 mg/kg) it was 34.3 nM. For the same compound, the “Unbound clearance” value in [9] was determined as 581.38 L/h/kg. The area under the curve AUC(0-inf) in data set [9] amounted to 0.9 µM·h; in data set [11] (10 mg/kg) it was 0.6 µM·h; in [11] (50 mg/kg) it was 12.6 µM·h. For the same compound, the Cmax amounted to 1700 nM in data set [9], 300 nM in [11] (10 mg/kg) and 3900 nM in data set [11] (50 mg/kg). Further, the half-life in data set [9] is 1.3 h; in data set [11] (10 mg/kg), 1.7 h; in data set [11] (50 mg/kg), 2.7 h. In addition, the average free concentration at 24 h in data set [11] (10 mg/kg) is 0.2 nM; in data set [11] (50 mg/kg), 4.6 nM.

Source of the values: patent US20260216121A1, “3AH-CYCLOPENTA[B]BENZOFURAN-3A-YL AS RAS INHIBITORS” (SJP BIOTEC GMBH, priority 2023, published 2026).
